# Key:
# Test in all cases: relative viability (nuclei count vs DMSO), 5 days (fraction); higher = more cells survive
# Ispinesib + Decitabine = compound: Cc1ccc(C(=O)N(CCCN)[C@@H](c2nc3cc(Cl)ccc3c(=O)n2Cc2ccccc2)C(C)C)cc1 [Ispinesib] + Nc1ncn([C@H]2C[C@H](O)[C@@H](CO)O2)c(=O)n1 [Decitabine] (partner 2 µM)
# Summary of the method: (§1)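 Lung cancer cell lines in 1536-well plates got either a single drug or a fixed anchor-drug dose together with five library-drug doses (not always all listed) in √10 steps, by pin tool, on the day after seeding. Nuclei were counted after 5 days, and relative viability is the treated-to-vehicle ratio of nuclei counts. Values are medians of duplicate plates.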
# Ispinesib + Luminespib = compound: Cc1ccc(C(=O)N(CCCN)[C@@H](c2nc3cc(Cl)ccc3c(=O)n2Cc2ccccc2)C(C)C)cc1 [Ispinesib] + CCNC(=O)c1noc(-c2cc(C(C)C)c(O)cc2O)c1-c1ccc(CN2CCOCC2)cc1 [Luminespib] (partner 0.01 µM)
# Summary of the method: as §1
# Ispinesib + Olaparib = compound: Cc1ccc(C(=O)N(CCCN)[C@@H](c2nc3cc(Cl)ccc3c(=O)n2Cc2ccccc2)C(C)C)cc1 [Ispinesib] + O=C(c1cc(Cc2n[nH]c(=O)c3ccccc23)ccc1F)N1CCN(C(=O)C2CC2)CC1 [Olaparib] (partner 8 µM)
# Summary of the method: as §1
# Linsitinib + Phenformin = compound: C[C@]1(O)C[C@@H](c2nc(-c3ccc4ccc(-c5ccccc5)nc4c3)c3c(N)nccn32)C1 [Linsitinib] + N=C(N)NC(=N)NCCc1ccccc1 [Phenformin] (partner 250 µM)
# Summary of the method: as §1
Cell Line,relative viability (Ispinesib + Decitabine; first compound 0.001 µM),relative viability (Ispinesib + Decitabine; first compound 0.003162 µM),relative viability (Ispinesib + Decitabine; first compound 0.01 µM),relative viability (Ispinesib + Decitabine; first compound 0.03162 µM),relative viability (Ispinesib + Decitabine; first compound 0.1 µM),relative viability (Ispinesib + Luminespib; first compound 0.001 µM),relative viability (Ispinesib + Luminespib; first compound 0.003162 µM),relative viability (Ispinesib + Luminespib; first compound 0.01 µM),relative viability (Ispinesib + Luminespib; first compound 0.03162 µM),relative viability (Ispinesib + Luminespib; first compound 0.1 µM),relative viability (Ispinesib + Olaparib; first compound 0.001 µM),relative viability (Ispinesib + Olaparib; first compound 0.003162 µM),relative viability (Ispinesib + Olaparib; first compound 0.01 µM),relative viability (Ispinesib + Olaparib; first compound 0.03162 µM),relative viability (Ispinesib + Olaparib; first compound 0.1 µM),relative viability (Linsitinib + Phenformin; first compound 0.01 µM),relative viability (Linsitinib + Phenformin; first compound 0.03162 µM),relative viability (Linsitinib + Phenformin; first compound 0.1 µM),relative viability (Linsitinib + Phenformin; first compound 0.3162 µM),relative viability (Linsitinib + Phenformin; first compound 1 µM)
NCI-H441,0.216,0.139,0.192,0.18,0.193,0.346,0.404,0.448,0.389,0.292,0.529,0.516,0.631,0.237,0.247,0.944,0.966,0.675,0.442,0.298
NCI-H460,0.533,0.516,0.699,0.146,0.0478,0.022,0.0333,0.0413,0.0267,0.0268,0.538,0.504,0.436,0.597,0.195,0.511,0.44,0.521,0.394,0.342
NCI-H520,0.54,0.469,0.33,0.226,0.227,0.24,0.17,0.207,0.206,0.204,0.364,0.328,0.388,0.188,0.278,0.567,0.53,0.607,,0.547
NCI-H522,0.662,0.649,0.751,0.687,0.673,1.02,1.1,1.17,0.922,1.11,0.634,0.585,0.779,0.571,0.555,0.589,0.662,0.567,,0.613
NCI-H596,1.02,1.89,1.15,1.02,0.885,1.01,0.954,1.07,1.06,0.609,0.652,0.629,0.638,0.671,0.571,0.721,0.638,0.678,0.774,0.833
NCI-H647,0.49,0.409,0.326,0.179,0.157,0.172,0.28,0.233,0.229,0.151,0.749,0.545,0.681,0.172,0.143,0.524,0.464,0.537,,0.438
NCI-H650,0.289,0.325,0.328,0.33,0.306,0.739,0.836,0.808,0.621,0.783,0.361,0.384,0.409,0.427,0.278,0.443,0.484,0.432,0.337,0.364
NCI-H661,0.614,0.567,0.511,0.264,0.231,0.926,0.913,0.921,0.586,0.224,0.737,0.848,0.805,0.505,0.255,0.291,0.221,0.268,0.293,0.255
NCI-H727,0.651,0.864,,0.737,0.761,0.244,0.284,0.349,0.0037,0.308,0.642,0.771,,0.659,0.633,0.562,0.489,0.483,0.503,0.422
NCI-H838,0.457,0.45,0.46,0.236,0.181,0.302,0.325,0.278,0.322,0.268,0.914,0.875,1.11,0.668,0.203,0.528,0.487,0.462,,0.395
NCI-H1355,0.364,0.364,0.405,0.33,0.307,0.702,0.729,0.881,0.598,0.488,0.736,0.806,0.889,0.736,0.328,0.452,0.447,0.393,0.32,0.304
NCI-H1395,0.734,0.746,0.577,0.467,0.412,0.793,0.769,0.817,0.655,0.447,0.436,0.446,0.439,0.369,0.356,0.442,0.462,0.454,0.468,0.423
NCI-H1437,0.552,0.605,0.677,0.652,0.228,1.16,1.22,1.26,1.22,0.994,0.685,0.653,0.763,0.7,0.256,0.281,0.321,0.303,0.272,0.288
NCI-H1650,0.527,0.448,0.45,0.331,0.185,0.182,0.185,0.217,0.181,0.198,0.953,0.743,0.82,0.701,0.195,0.477,0.406,0.489,0.272,0.254
NCI-H1651,0.582,0.688,0.67,0.559,0.508,0.989,0.88,0.859,1.23,0.404,0.183,0.217,0.179,0.169,0.19,0.324,0.344,0.304,0.272,0.311
NCI-H1666,0.638,0.795,0.779,0.656,0.625,1,0.973,0.946,0.887,0.501,0.756,0.801,0.702,0.713,0.663,0.539,0.394,0.534,0.314,0.511

Cell Line,relative viability (Ispinesib + Decitabine; first compound 0.001 µM),relative viability (Ispinesib + Decitabine; first compound 0.003162 µM),relative viability (Ispinesib + Decitabine; first compound 0.01 µM),relative viability (Ispinesib + Decitabine; first compound 0.03162 µM),relative viability (Ispinesib + Decitabine; first compound 0.1 µM),relative viability (Ispinesib + Luminespib; first compound 0.001 µM),relative viability (Ispinesib + Luminespib; first compound 0.003162 µM),relative viability (Ispinesib + Luminespib; first compound 0.01 µM),relative viability (Ispinesib + Luminespib; first compound 0.03162 µM),relative viability (Ispinesib + Luminespib; first compound 0.1 µM),relative viability (Ispinesib + Olaparib; first compound 0.001 µM),relative viability (Ispinesib + Olaparib; first compound 0.003162 µM),relative viability (Ispinesib + Olaparib; first compound 0.01 µM),relative viability (Ispinesib + Olaparib; first compound 0.03162 µM),relative viability (Ispinesib + Olaparib; first compound 0.1 µM),relative viability (Linsitinib + Phenformin; first compound 0.01 µM),relative viability (Linsitinib + Phenformin; first compound 0.03162 µM),relative viability (Linsitinib + Phenformin; first compound 0.1 µM),relative viability (Linsitinib + Phenformin; first compound 0.3162 µM),relative viability (Linsitinib + Phenformin; first compound 1 µM)
NCI-H1734,0.538,0.528,0.591,0.54,0.391,0.179,0.0914,0.177,0.192,0.157,0.613,0.658,0.64,0.675,0.449,0.449,0.392,0.367,0.363,0.315
NCI-H1755,0.704,0.771,0.758,0.75,0.72,0.292,0.641,0.423,0.315,0.441,0.909,0.928,0.963,0.987,0.759,0.66,0.64,0.629,0.372,0.503
NCI-H1792,0.548,0.546,0.725,0.484,0.238,0.821,0.435,0.705,0.443,0.471,0.385,0.394,0.252,0.53,0.152,0.453,0.419,0.29,0.166,0.073
NCI-H1793,0.411,0.473,0.624,0.524,0.229,0.198,0.169,0.749,0.144,0.162,1.04,0.833,1.19,0.752,0.371,0.362,0.373,0.369,0.271,0.282
NCI-H1915,0.233,0.281,0.268,0.291,0.229,0.979,0.987,1.13,0.706,0.385,0.262,0.266,0.298,0.258,0.209,0.371,0.389,0.247,0.339,0.373
NCI-H1944,0.416,0.412,0.467,0.417,0.443,0.75,0.781,0.968,0.475,0.617,0.436,0.454,0.491,0.418,0.406,0.217,0.259,0.192,0.165,0.159
NCI-H1975,0.382,0.436,0.37,0.288,0.221,0.231,0.217,0.21,0.351,0.198,0.864,0.802,0.842,0.922,0.181,0.396,0.417,0.413,0.38,0.396
NCI-H1993,0.679,0.667,0.555,0.678,0.479,0.801,0.45,1.01,0.821,0.634,1.08,1.07,1.11,1.23,0.822,0.523,0.465,0.572,0.526,0.526
NCI-H2009,0.447,0.365,0.383,0.366,0.244,1.12,1.13,1.19,0.769,0.251,0.735,0.678,0.793,0.859,0.257,0.479,0.47,0.434,,0.367
NCI-H2023,0.226,0.233,0.247,0.129,0.103,0.793,0.628,1.07,0.29,0.179,0.543,0.553,0.511,0.271,0.232,0.382,0.349,0.464,0.296,0.297
NCI-H2085,0.487,0.524,0.581,0.577,0.556,0.484,0.421,0.491,0.401,0.447,0.747,0.779,0.845,0.792,0.544,0.763,0.723,0.727,0.663,0.574
NCI-H2087,0.346,0.297,0.241,0.194,0.122,0.168,0.159,0.189,0.14,0.151,0.708,0.694,0.801,0.545,0.145,0.498,0.54,0.417,0.222,0.365
NCI-H2126,0.541,0.536,0.57,0.551,0.559,0.927,1.02,1.03,0.844,0.428,0.986,0.963,0.981,1.08,0.85,0.531,0.512,0.484,0.338,0.319
NCI-H2170,0.518,0.532,0.548,0.46,0.379,0.74,0.53,0.964,0.351,0.448,0.593,0.679,0.651,0.481,0.444,0.432,0.379,0.364,0.24,0.348
NCI-H2342,0.821,0.756,0.76,0.743,0.78,0.746,0.768,0.698,0.703,0.592,0.413,0.423,0.423,0.453,0.328,0.46,0.584,0.527,0.511,0.488
NCI-H2347,0.625,0.618,0.597,0.578,0.589,0.375,0.503,0.624,0.359,0.469,0.504,0.692,0.592,0.559,0.525,0.391,0.534,0.385,,0.467

# Reference: the supplement of paper PMC10307832
